From ChEMBL document CHEMBL5247677, “N-Aryl Indoles as a Novel Class of Potent NaV1.7 Inhibitors” (ACS Med Chem Lett, 2023)
≈ marks a conversion by molar mass, not a printed value. Calls of active or inactive are those of the source. No cut-off for these calls is given here.

Key:
[1] = target: Sodium channel protein type 9 subunit alpha/beta-1/beta-2 (Mus musculus, UniProt Q62205); experiment: Inhibition of mouse Nav1.7/beta1/2 transfected in HEK293-A cells assessed as inhibition of channel current incubated for 5.5 mins by high-throughput electrophysiology system analysis; format: cell-based
[2] = target: Sodium channel protein type 1 subunit alpha/beta-1/beta-2 (Homo sapiens, UniProt P35498); experiment: (§1) Inhibition of human Nav1.1/beta1/2 transfected in HEK293-A cells assessed as inhibition of channel current incubated for 5.5 mins by high-throughput electrophysiology system analysis; format: toxicity, cell-based
[3] = target: Sodium channel protein type 9 subunit alpha/beta-1/beta-2 (Homo sapiens, UniProt Q15858); experiment: Inhibition of human Nav1.7/beta1/2 transfected in HEK293-A cells assessed as inhibition of channel current incubated for 5.5 mins by high-throughput electrophysiology system analysis; format: cell-based
[4] = target: Sodium channel protein type 5 subunit alpha/beta-1/beta-2 (Homo sapiens, UniProt Q14524); experiment: (§2) Inhibition of human Nav1.5/beta1/2 transfected in HEK293-A cells assessed as inhibition of channel current incubated for 5.5 mins by high-throughput electrophysiology system analysis; format: toxicity, cell-based
hERG (KCNH2) = hERG (KCNH2) (Homo sapiens, UniProt Q12809); experiment: Inhibition of hERG at 100 uM; format: toxicity
[5] = Selectivity ratio of IC50 for human Nav1.5/beta1/2 transfected in HEK293-A cells to IC50 for human Nav1.7/beta1/2 transfected in HEK293-A cells
[6] = Selectivity ratio of IC50 for mouse Nav1.7/beta1/2 transfected in HEK293-A cells to IC50 for human Nav1.7/beta1/2 transfected in HEK293-A cells; format: cell-based
[7] = Unbound fraction in mouse plasma; format: ADME, cell-free
[8] = Aqueous thermodynamic solubility of the compound at pH 6.8 measured after 4 hrs by HPLC-UV analysis; format: physicochemical; conditions: read-out: Therm_solubility
[9] = Selectivity ratio of IC50 for human Nav1.1/beta1/2 transfected in HEK293-A cells to IC50 for human Nav1.7/beta1/2 transfected in HEK293-A cells
[10] = 1-Octanol/PBS buffer distribution coefficient, log D of the compound at pH 7.4 by HPLC/LC-MS analysis; format: physicochemical
Mus musculus [11] = experiment: Analgesic activity against PSL-induced neuropathic pain mouse model assessed as reversal of thermal hyperalgesia at 1 mg/kg, po measured after 30 mins by plantar test; format: functional; conditions: 0.5 h
[12] = Ratio of fCmax in ddY mouse plasma at 1 mg/kg, po to IC50 for inhibition of mouse Nav1.7/beta1/2 transfected in HEK293-A cells
[13] = Bioavailability in ddY mouse at 1 mg/kg, iv by LC-MS/MS analysis; format: ADME, organism-based; conditions: in vivo
[14] = Volume of distribution at steady state in ddY mouse at 1 mg/kg, iv by LC-MS/MS analysis; format: ADME, organism-based; conditions: in vivo, read-out: Vdss
[15] = Cmax in ddY mouse at 1 mg/kg, po by LC-MS/MS analysis; format: ADME, organism-based; design: dose 1 mg/kg, route po; conditions: in vivo
[16] = Total body clearance in ddY mouse at 1 mg/kg, iv by LC-MS/MS analysis; format: ADME, organism-based; conditions: in vivo
[17] = AUC(0 to 24 hrs) in ddY mouse at 1 mg/kg, po by LC-MS/MS analysis; format: ADME, organism-based; design: dose 1 mg/kg, route po; conditions: in vivo
[18] = Half life in ddY mouse at 1 mg/kg, po by LC-MS/MS analysis; format: ADME, organism-based; conditions: in vivo
[19] = Tmax in ddY mouse at 1 mg/kg, po by LC-MS/MS analysis; format: ADME, organism-based; conditions: in vivo
Mus musculus [20] = experiment: Analgesic activity against PSL-induced neuropathic pain mouse model assessed as reversal of thermal hyperalgesia at 1 mg/kg, po measured after 60 mins by plantar test; format: functional, organism-based
Mus musculus [21] = experiment: Analgesic activity against PSL-induced neuropathic pain mouse model assessed as reversal of thermal hyperalgesia at 1 mg/kg, po measured after 180 mins by plantar test; format: functional, organism-based
Mus musculus [22] = experiment: Analgesic activity against PSL-induced neuropathic pain mouse model assessed as reversal of thermal hyperalgesia at 3 mg/kg, po by plantar test; format: functional, organism-based
[23] = target: Nav1.1/beta1/beta2 sodium channel (Homo sapiens, UniProt P35498); experiment: as §1; format: toxicity, cell-based; conditions: human, HEK293-A cells transfected with human Nav1.1/beta1/2
[24] = target: Nav1.5/beta1/beta2 sodium channel (Homo sapiens, UniProt Q14524); experiment: as §2; format: toxicity, cell-based; conditions: human, HEK293-A cells transfected with human Nav1.5/beta1/2

Sequence of Sodium channel protein type 9 subunit alpha/beta-1/beta-2 (Mus musculus, UniProt Q62205) (Q62205 whole entry): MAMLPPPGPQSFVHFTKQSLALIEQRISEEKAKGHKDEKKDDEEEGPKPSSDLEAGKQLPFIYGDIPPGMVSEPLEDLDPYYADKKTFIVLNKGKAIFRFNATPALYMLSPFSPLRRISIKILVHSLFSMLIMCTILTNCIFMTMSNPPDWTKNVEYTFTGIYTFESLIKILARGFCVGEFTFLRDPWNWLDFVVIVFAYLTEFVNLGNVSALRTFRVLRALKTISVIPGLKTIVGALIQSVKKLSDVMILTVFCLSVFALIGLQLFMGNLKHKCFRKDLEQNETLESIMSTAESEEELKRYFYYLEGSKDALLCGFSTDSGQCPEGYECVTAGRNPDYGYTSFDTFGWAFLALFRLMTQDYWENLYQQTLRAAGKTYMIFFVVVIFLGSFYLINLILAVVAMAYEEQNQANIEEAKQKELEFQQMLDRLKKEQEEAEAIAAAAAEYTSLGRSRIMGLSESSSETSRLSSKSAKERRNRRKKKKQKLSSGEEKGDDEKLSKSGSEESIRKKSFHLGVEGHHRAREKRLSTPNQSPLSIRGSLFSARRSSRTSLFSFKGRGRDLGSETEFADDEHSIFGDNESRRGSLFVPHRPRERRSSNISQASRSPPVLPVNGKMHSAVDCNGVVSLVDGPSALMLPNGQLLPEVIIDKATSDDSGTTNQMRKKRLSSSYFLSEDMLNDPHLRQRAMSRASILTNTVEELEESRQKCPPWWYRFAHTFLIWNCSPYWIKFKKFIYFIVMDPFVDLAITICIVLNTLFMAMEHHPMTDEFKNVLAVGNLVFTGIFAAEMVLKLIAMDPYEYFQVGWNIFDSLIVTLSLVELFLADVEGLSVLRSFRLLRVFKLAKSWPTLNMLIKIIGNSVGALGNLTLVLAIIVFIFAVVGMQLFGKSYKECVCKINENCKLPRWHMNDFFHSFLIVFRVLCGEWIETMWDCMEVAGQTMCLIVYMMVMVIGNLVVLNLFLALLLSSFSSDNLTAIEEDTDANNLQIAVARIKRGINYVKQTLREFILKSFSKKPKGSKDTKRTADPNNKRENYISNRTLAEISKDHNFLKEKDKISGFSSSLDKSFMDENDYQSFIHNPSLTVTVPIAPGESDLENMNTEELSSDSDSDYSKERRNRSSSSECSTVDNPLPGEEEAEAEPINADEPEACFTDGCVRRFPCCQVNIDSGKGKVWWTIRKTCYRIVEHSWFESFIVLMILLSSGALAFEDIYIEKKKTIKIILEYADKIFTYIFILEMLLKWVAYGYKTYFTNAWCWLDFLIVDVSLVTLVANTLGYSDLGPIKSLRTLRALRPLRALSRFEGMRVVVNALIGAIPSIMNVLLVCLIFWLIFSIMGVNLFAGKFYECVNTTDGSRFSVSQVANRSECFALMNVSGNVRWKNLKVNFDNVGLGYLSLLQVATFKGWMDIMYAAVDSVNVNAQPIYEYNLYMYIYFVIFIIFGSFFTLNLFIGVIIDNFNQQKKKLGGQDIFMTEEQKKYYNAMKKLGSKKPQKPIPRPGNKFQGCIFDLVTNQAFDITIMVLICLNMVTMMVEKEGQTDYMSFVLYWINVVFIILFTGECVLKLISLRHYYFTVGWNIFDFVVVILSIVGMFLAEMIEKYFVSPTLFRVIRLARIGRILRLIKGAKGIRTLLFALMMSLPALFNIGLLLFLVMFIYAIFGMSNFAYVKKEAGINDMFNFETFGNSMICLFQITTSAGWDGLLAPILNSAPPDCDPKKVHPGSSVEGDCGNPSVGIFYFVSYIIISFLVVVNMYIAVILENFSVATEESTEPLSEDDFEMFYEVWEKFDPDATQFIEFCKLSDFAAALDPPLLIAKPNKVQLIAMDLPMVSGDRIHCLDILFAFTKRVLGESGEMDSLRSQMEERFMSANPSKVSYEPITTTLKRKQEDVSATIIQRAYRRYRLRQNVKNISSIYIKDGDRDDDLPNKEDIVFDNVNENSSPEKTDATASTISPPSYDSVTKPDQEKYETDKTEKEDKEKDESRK
Sequence of Sodium channel protein type 9 subunit alpha/beta-1/beta-2 (Mus musculus, UniProt Q62205) (P97952 whole entry, further chain): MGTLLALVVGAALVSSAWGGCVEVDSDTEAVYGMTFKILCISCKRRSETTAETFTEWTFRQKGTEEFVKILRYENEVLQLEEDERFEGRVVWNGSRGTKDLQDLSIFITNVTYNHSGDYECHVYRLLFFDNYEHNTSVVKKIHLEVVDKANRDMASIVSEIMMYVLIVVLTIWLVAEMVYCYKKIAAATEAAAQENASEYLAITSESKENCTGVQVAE
Sequence of Sodium channel protein type 9 subunit alpha/beta-1/beta-2 (Mus musculus, UniProt Q62205) (Q56A07 whole entry, further chain): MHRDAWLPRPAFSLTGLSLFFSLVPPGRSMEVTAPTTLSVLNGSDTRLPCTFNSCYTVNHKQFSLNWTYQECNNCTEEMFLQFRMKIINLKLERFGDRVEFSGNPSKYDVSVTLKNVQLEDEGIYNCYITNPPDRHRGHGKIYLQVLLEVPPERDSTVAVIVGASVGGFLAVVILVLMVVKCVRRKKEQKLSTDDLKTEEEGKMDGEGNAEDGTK
Sequence of Sodium channel protein type 5 subunit alpha/beta-1/beta-2 (Q14524 whole entry): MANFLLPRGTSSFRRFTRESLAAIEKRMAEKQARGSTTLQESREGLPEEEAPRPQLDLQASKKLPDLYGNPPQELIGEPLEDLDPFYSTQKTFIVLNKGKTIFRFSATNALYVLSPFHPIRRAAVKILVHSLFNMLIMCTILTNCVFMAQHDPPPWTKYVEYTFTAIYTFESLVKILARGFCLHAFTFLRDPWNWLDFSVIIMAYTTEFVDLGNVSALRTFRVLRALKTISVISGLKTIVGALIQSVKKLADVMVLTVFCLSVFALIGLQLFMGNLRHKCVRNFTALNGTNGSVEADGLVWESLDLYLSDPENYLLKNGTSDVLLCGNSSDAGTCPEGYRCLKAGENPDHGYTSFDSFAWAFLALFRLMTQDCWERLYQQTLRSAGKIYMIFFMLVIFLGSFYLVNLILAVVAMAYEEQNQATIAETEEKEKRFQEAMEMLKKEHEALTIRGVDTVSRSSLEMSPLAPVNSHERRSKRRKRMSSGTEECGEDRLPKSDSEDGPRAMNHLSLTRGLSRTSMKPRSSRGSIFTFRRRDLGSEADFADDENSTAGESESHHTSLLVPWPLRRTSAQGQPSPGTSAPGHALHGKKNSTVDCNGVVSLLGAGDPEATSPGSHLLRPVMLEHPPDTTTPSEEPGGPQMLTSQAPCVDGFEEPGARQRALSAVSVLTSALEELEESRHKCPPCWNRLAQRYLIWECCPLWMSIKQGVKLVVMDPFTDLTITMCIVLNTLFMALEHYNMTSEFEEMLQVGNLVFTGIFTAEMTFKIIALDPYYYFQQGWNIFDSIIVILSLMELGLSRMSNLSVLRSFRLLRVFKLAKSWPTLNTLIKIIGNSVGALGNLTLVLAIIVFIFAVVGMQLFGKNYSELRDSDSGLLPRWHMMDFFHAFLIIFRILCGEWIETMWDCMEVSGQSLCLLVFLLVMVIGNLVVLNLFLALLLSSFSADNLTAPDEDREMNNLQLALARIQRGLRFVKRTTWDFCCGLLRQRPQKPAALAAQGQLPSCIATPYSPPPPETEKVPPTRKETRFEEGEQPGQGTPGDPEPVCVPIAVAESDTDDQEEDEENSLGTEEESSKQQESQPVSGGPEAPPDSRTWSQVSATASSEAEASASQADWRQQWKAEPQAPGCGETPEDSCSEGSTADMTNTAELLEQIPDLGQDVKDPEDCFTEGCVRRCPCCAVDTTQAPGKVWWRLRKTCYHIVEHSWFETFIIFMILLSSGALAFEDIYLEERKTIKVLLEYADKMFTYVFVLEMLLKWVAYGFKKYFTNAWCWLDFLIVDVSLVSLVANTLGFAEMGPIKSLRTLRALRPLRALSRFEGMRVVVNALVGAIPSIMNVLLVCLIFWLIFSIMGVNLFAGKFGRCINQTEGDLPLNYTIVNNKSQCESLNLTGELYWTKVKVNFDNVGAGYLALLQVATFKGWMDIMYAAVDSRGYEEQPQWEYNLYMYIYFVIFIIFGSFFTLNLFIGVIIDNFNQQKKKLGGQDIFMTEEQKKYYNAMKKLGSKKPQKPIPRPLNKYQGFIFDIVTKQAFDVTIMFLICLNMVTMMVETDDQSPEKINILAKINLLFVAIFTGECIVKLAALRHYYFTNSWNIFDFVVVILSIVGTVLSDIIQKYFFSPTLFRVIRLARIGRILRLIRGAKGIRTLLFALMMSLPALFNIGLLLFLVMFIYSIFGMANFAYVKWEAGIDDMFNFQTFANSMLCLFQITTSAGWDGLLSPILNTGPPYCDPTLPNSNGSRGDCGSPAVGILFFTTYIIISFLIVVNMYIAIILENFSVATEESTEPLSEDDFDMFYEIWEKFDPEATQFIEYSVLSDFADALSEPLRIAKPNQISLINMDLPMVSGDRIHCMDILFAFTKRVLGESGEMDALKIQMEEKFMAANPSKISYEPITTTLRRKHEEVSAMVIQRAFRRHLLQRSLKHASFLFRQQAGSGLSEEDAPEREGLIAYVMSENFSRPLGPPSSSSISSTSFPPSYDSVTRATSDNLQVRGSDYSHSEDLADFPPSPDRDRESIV
Sequence of Sodium channel protein type 5 subunit alpha/beta-1/beta-2 (O60939 whole entry, further chain): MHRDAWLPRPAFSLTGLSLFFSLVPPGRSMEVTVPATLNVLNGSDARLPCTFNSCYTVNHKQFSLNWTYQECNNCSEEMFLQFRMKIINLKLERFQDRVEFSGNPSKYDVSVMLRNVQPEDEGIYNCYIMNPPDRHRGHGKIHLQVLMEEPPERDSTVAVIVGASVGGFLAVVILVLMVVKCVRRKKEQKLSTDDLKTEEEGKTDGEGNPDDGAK
Sequence of Sodium channel protein type 5 subunit alpha/beta-1/beta-2 (Q07699 whole entry, further chain): as the sequence (P97952 whole entry, further chain) above, with T3R, W18C, D27E, T50N, D130E, L144I, V179I, A191T counted along it

| Structure (SMILES) | IC50 [1] | IC50 [3] | fraction unbound [7] | solubility thermodynamic at 4 h [8] | logD [10] | IC50 [2] | IC50 [4] | inhibition at 100 µM (hERG (KCNH2)) | also measured |
| --- | --- | --- | --- | --- | --- | --- | --- | --- | --- |
| Cc1cn(-c2cncc(F)c2)c2ccc(C(=O)NS(=O)(=O)C3CC3)cc12 | 2.7 µM | 0.86 µM |  |  |  | > 100 µM | > 300 µM | -1.1% |  |
| Cc1cn(-c2ccccc2)c2ccc(C(=O)NS(C)(=O)=O)cc12 | 2.7 µM | 0.33 µM | < 0.002 | > 660 µM | 1.1 | 80 µM | 79 µM | 17.1% | Ratio IC50 [5]: 240; Ratio IC50 [6]: 10; Ratio IC50 [9]: 240 |
| Cn1cc(-c2ccccc2)c2cc(C(=O)NS(C)(=O)=O)ccc21 | > 10 µM | > 10 µM |  |  |  |  |  |  |  |
| Cc1cn(-c2cncc(Cl)c2)c2ccc(C(=O)NS(=O)(=O)C3CC3)cc12 | 0.46 µM | 0.085 µM |  | 35 µM (≈ 13.6 µg/mL) | 0.8 | 9.9 µM | 107 µM | 34.1% |  |
| Cc1cn(-c2cccc(Cl)c2)c2ccc(C(=O)NS(C)(=O)=O)cc12 | 1.7 µM | 0.087 µM | < 0.002 | 620 µM (≈ 225 µg/mL) | 1.8 | 20 µM | 34 µM | 43.5% |  |
| CS(=O)(=O)NC(=O)c1ccc2c(ccn2Cc2ccccc2)c1 | > 10 µM | > 10 µM |  |  |  |  |  |  |  |
| Cc1cn(-c2cccnc2)c2ccc(C(=O)NS(C)(=O)=O)cc12 |  | > 10 µM |  |  |  |  | > 300 µM | -0.1% |  |
| COc1cccc(-n2cc(C)c3cc(C(=O)NS(C)(=O)=O)ccc32)c1 | 2.1 µM | 0.19 µM | < 0.002 | 580 µM (≈ 208 µg/mL) | 1.2 | 79 µM | 71 µM | 18.9% |  |
| CS(=O)(=O)NC(=O)c1ccc2[nH]cc(-c3ccccc3)c2c1 | > 10 µM | > 10 µM |  |  |  |  |  |  |  |
| Cc1cn(-c2cccnc2)c2ccc(C(=O)NS(=O)(=O)C3CC3)cc12 | > 10 µM | 1.6 µM |  |  |  | > 100 µM | > 300 µM | -8.8% |  |
| O=C(NS(=O)(=O)N1CCC1)c1cc(C2CC2)c(OCC23CC4CC(CC(C4)C2)C3)cc1F |  |  |  |  |  |  |  |  | IC50 at 5.5 min [24]: 0.051 µM |
| Cc1cn(-c2ccc(Cl)cc2)c2ccc(C(=O)NS(C)(=O)=O)cc12 | 7.9 µM | 0.26 µM |  | 26 µM (≈ 9.43 µg/mL) | 1.8 | > 100 µM | 23 µM | 51.1% |  |
| CS(=O)(=O)NC(=O)c1ccc2c(ccn2-c2ccccc2)c1 | > 10 µM | > 10 µM |  |  |  |  |  |  |  |
| Cc1cn(-c2ccccc2F)c2ccc(C(=O)NS(C)(=O)=O)cc12 | 12 µM | 5.9 µM |  |  |  |  | 100 µM |  |  |
| Cc1cn(-c2ccc(C(F)(F)F)nc2)c2ccc(C(=O)NS(=O)(=O)C3CC3)cc12 | 1.6 µM | 0.059 µM | 0.014 | 29 µM (≈ 12.3 µg/mL) | 1 | > 100 µM | 210 µM | 21% |  |
| Cc1cn(-c2ccc(F)cc2)c2ccc(C(=O)NS(C)(=O)=O)cc12 | 2.8 µM | 0.19 µM | < 0.002 | 140 µM (≈ 48.5 µg/mL) | 1.1 | 52 µM | 42 µM | 5.6% |  |

Second part, led by results:

| IC50 [1] | IC50 [3] | fraction unbound [7] | solubility thermodynamic at 4 h [8] | logD [10] | Structure (SMILES) | IC50 [2] | IC50 [4] | inhibition at 100 µM (hERG (KCNH2)) | also measured |
| --- | --- | --- | --- | --- | --- | --- | --- | --- | --- |
| 0.98 µM | 0.014 µM | < 0.002 | 430 µM (≈ 157 µg/mL) | 0.8 | Cc1cn(-c2cccc(F)c2)c2cc(F)c(C(=O)NS(C)(=O)=O)cc12 | > 100 µM | 31 µM | 15.6% |  |
| 0.81 µM | 0.032 µM | < 0.002 | 440 µM (≈ 164 µg/mL) | 1.8 | Cc1cn(-c2cccc(F)c2)c2ccc(C(=O)NS(=O)(=O)C3CC3)cc12 | 4.8 µM | 14 µM | 42.1% | Efficacy (Mus musculus [11]): 79%; Ratio [12]: <0.0042; bioavailability [13]: 65%; Vd [14]: 0.57 L/kg; Cmax [15]: 1700 nM; clearance [16]: 2.58 mL/min/kg; AUC(0-t) [17]: 12.1 µM·h; half-life [18]: 5 h; Tmax [19]: 1 h |
| 0.015 µM | 0.04 µM | 0.007 | 25 µM (≈ 11 µg/mL) | 0.6 | Cc1cn(-c2cncc(C(F)(F)F)c2)c2cc(F)c(C(=O)NS(=O)(=O)C3CC3)cc12 | 1.2 µM | 32 µM | -2.9% | Activity (Mus musculus [20]): Active; Efficacy (Mus musculus [11]): 64%; Ratio [12]: 0.65; Cmax [15]: 1400 nM; Ratio IC50 [9]: 30; AUC(0-t) [17]: 23.6 µM·h; Activity (Mus musculus [21]): inactive; half-life [18]: 13.5 h; Tmax [19]: 6 h |
| 1.6 µM | 0.058 µM |  | 550 µM (≈ 188 µg/mL) | 1.6 | Cc1cccc(-n2cc(C)c3cc(C(=O)NS(C)(=O)=O)ccc32)c1 | 39 µM |  | 51% |  |
| 0.016 µM | 0.019 µM | 0.004 | 230 µM (≈ 95.3 µg/mL) | 1.5 | Cc1cn(-c2cccc(C(F)(F)F)c2)c2cc(F)c(C(=O)NS(C)(=O)=O)cc12 | > 100 µM | 14 µM | 54.8% | Ratio IC50 [5]: 740; Activity (Mus musculus [22]): Active; Ratio IC50 [9]: 5000 |
| 1.7 µM | 0.052 µM |  |  |  | CS(=O)(=O)NC(=O)c1cc(Cl)c(Oc2cnc(C3CC3)c(Cl)c2)cc1F | 22 µM | 29 µM |  |  |
|  | 0.0006 µM |  |  |  | C[C@@H](c1cc(Cl)cc(Cl)c1)N1CCC(COc2cc(F)c(C(=O)NS(C)(=O)=O)cc2C2CC2)CC1 |  | 0.551 µM |  | IC50 at 5.5 min [23]: 0.202 µM |
| 0.68 µM | 0.034 µM | 0.002 | > 820 µM | 1.7 | Cc1cn(-c2cccc(C(F)(F)F)c2)c2ccc(C(=O)NS(C)(=O)=O)cc12 | 20 µM | 27 µM | 49.8% |  |
| 0.9 µM | 0.038 µM | < 0.002 | 600 µM (≈ 208 µg/mL) | 1.2 | Cc1cn(-c2cccc(F)c2)c2ccc(C(=O)NS(C)(=O)=O)cc12 | 12 µM | 35 µM | 13.2% |  |
